From paper PMC10580965 (Microbiology Spectrum, 2023)
In brackets after ≈: the same amount, converted by molar mass. Like-named read-outs stand apart in the source and are kept apart here. Bridge positions count the residues as written; N and C are the ends. Square brackets hold non-standard residues; d marks the D form. Peptide text beside a SMILES is read from it. * marks the point of attachment. Ileψ(thiazoline)Cys = CC[C@H](C)[C@H](N)C1=N[C@H](C(=O)*)CS1; dOrn = NCCC[C@@H](N)C(=O)O; X1 = CC[C@H](C)CCCCC(=O)*; Dab = NCC[C@H](N)C(=O)O

Assays:
[1] = system: C. pseudotuberculosis wild-type
[2] = pH 7; cited from earlier work
[3] = system: C. pseudotuberculosis ΔlysX complement
[4] = system: Corynebacterium spp.; conditions: cited from earlier work

| Compound | MIC wt [1] [µg/mL] | Charge [2] | MIC ΔlysX complement [3] [µg/mL] | MIC wt ([1]; 24 h) [µg/mL] | susceptibility breakpoint [4] [µg/mL] | MIC ΔlysX complement ([3]; 24 h) [µg/mL] |
| --- | --- | --- | --- | --- | --- | --- |
| CC1(C)S[C@@H]2[C@H](NC(=O)[C@H](NC(=O)N3CCNC3=O)c3ccccc3)C(=O)N2[C@H]1C(=O)O [Azlocillin] | 0.156 (≈ 0.338 µM) | −1 |  |  |  |  |
| CC1(C)S[C@@H]2[C@H](NC(=O)[C@H](N)c3ccccc3)C(=O)N2[C@H]1C(=O)O [Ampicillin] |  | 0 |  |  |  |  |
| CN[C@@H]1[C@H](O)[C@H](NC)[C@H]2O[C@@]3(O)C(=O)C[C@@H](C)O[C@H]3O[C@@H]2[C@H]1O [Spectinomycin] | 2.5 (≈ 7.52 µM) | +1 | 2.5 (≈ 7.52 µM) |  |  |  |
| CC[C@H]1OC(=O)[C@H](C)[C@@H](O[C@H]2C[C@@](C)(OC)[C@@H](O)[C@H](C)O2)[C@H](C)[C@@H](O[C@@H]2O[C@H](C)C[C@H](N(C)C)[C@H]2O)[C@](C)(O)C[C@@H](C)C(=O)[C@H](C)[C@@H](O)[C@]1(C)O [Erythromycin] | 0.156 (≈ 0.213 µM) | +1 |  |  |  |  |
| Nisin | 80 | +4 | 80 |  |  |  |
| CCCNC[C@]1(O)[C@H](C)O[C@@H](O[C@H]2[C@H](C)[C@@H](O[C@@H]3O[C@H](C)C[C@H](N(C)C)[C@H]3O)[C@](C)(O)C[C@@H](C)CN[C@H](C)[C@@H](O)[C@](C)(O)[C@@H](CC)OC(=O)[C@@H]2C)C[C@@]1(C)OC [Tulathromycin] | 2.5 (≈ 3.1 µM) | +3 | 2.5 (≈ 3.1 µM) |  |  |  |
| [H]/N=C(/N)N[C@H]1[C@H](O)[C@@H](O)[C@H](O[C@@H]2O[C@@H](C)[C@](O)(C=O)[C@H]2O[C@@H]2O[C@@H](CO)[C@H](O)[C@@H](O)[C@@H]2NC)[C@@H](N/C(N)=N\[H])[C@@H]1O [Streptomycin] | 20 (≈ 34.4 µM) | +3 | 20 (≈ 34.4 µM) |  |  |  |
| CC[C@H](C)[C@H](N)C1=N[C@H](C(=O)N[C@@H](CC(C)C)C(=O)N[C@H](CCC(=O)O)C(=O)N[C@H](C(=O)N[C@H]2CCCCNC(=O)[C@H](CC(N)=O)NC(=O)[C@@H](CC(=O)O)NC(=O)[C@H](Cc3cnc[nH]3)NC(=O)[C@@H](Cc3ccccc3)NC(=O)[C@H]([C@@H](C)CC)NC(=O)[C@@H](CCCN)NC2=O)[C@@H](C)CC)CS1 [Bacitracin] ({Ileψ(thiazoline)Cys}-L[dE]IK[dOrn]I[dF]H[dD]N; lactam 4-C (inferred); N-terminus assumed) |  | 0 |  | 6.4 (≈ 4.5 µM) |  |  |
| CN(C)[C@@H]1C(O)=C(C(N)=O)C(=O)[C@@]2(O)C(O)=C3C(=O)c4c(O)cccc4[C@@](C)(O)[C@H]3C[C@@H]12 [Tetracycline] | 0.312 (≈ 0.702 µM) | −1 |  |  |  |  |
| O=C(N[C@H](CO)[C@H](O)c1ccc([N+](=O)[O-])cc1)C(Cl)Cl [Chloramphenicol] | 10 (≈ 30.9 µM) | 0 |  |  |  |  |
| CNC(C)C1CCC(N)C(OC2C(N)CC(N)C(OC3OCC(C)(O)C(NC)C3O)C2O)O1 (centres unmarked) [Gentamicin] | 5 (≈ 10.5 µM) | +5 | 5 (≈ 10.5 µM) |  | 4 |  |
| CC[C@H](C)[C@H](NC(=O)CN)C(=O)NCC(=O)N[C@@H](C)C(=O)N[C@H](C(=O)N[C@@H](CC(C)C)C(=O)N[C@@H](CCCCN)C(=O)N[C@H](C(=O)N[C@@H](CC(C)C)C(=O)N[C@H](C(=O)N[C@H](C(=O)NCC(=O)N[C@@H](CC(C)C)C(=O)N1CCC[C@H]1C(=O)N[C@@H](C)C(=O)N[C@@H](CC(C)C)C(=O)N[C@H](C(=O)N[C@@H](CO)C(=O)N[C@@H](Cc1c[nH]c2ccccc12)C(=O)N[C@H](C(=O)N[C@@H](CCCCN)C(=O)N[C@@H](CCCNC(=N)N)C(=O)N[C@@H](CCCCN)C(=O)N[C@@H](CCCNC(=N)N)C(=O)N[C@@H](CCC(N)=O)C(=O)N[C@@H](CCC(N)=O)C(N)=O)[C@@H](C)CC)[C@@H](C)CC)[C@@H](C)O)[C@@H](C)O)C(C)C)C(C)C [Melittin] |  | +5 |  | >40 |  | >40 |
| CN[C@H](CC(C)C)C(=O)N[C@H]1C(=O)N[C@@H](CC(N)=O)C(=O)N[C@H]2C(=O)N[C@H]3C(=O)N[C@H](C(=O)N[C@H](C(=O)O)c4cc(O)cc(O)c4-c4cc3ccc4O)[C@H](O)c3ccc(c(Cl)c3)Oc3cc2cc(c3O[C@@H]2O[C@H](CO)[C@@H](O)[C@H](O)[C@H]2O[C@H]2C[C@](C)(N)[C@H](O)[C@H](C)O2)Oc2ccc(cc2Cl)[C@H]1O [Vancomycin] |  | +1 |  | 0.75 (≈ 0.518 µM) |  |  |
| CN[C@@H]1[C@@H](O[C@H]2O[C@H](CO)[C@@H](N)[C@H](O)[C@H]2O)OC2C[C@@H](N)[C@@H](O[C@H]3[C@H](O)[C@@H](O)[C@H](N)C[C@@H]3N)OC2[C@@H]1O (some centres unmarked) [Apramycin] | 20 (≈ 37.1 µM) | +5 | 20 (≈ 37.1 µM) |  |  |  |
| CN(C)[C@@H]1C(O)=C(C(N)=O)C(=O)[C@@]2(O)C(O)=C3C(=O)c4c(O)cccc4[C@@](C)(O)[C@H]3[C@H](O)[C@@H]12 [Oxytetracycline] | 0.625 (≈ 1.36 µM) | 0 |  |  |  |  |
| NC[C@H]1O[C@H](O[C@H]2[C@H](O)[C@@H](O[C@H]3O[C@H](CO)[C@@H](O)[C@H](N)[C@H]3O)[C@H](N)C[C@@H]2N)[C@H](O)[C@@H](O)[C@@H]1O [Kanamycin] | 10 (≈ 20.6 µM) | +4 | 10 (≈ 20.6 µM) |  |  |  |
| CO/N=C(\C(=O)N[C@@H]1C(=O)N2C(C(=O)O)=C(CSc3nc(=O)c(=O)[nH]n3C)CS[C@H]12)c1csc(N)n1 [Ceftriaxone] | 0.625 (≈ 1.13 µM) | −2 |  |  |  |  |
| Cc1onc(-c2ccccc2)c1C(=O)N[C@@H]1C(=O)N2[C@@H]1SC(C)(C)[C@@H]2C(=O)O [Oxacillin] | 2.5 (≈ 6.23 µM) | −1 |  |  |  |  |
| CC[C@H](C)CCCCC(=O)N[C@@H](CCN)C(=O)N[C@H](C(=O)N[C@@H](CCN)C(=O)N[C@H]1CCNC(=O)[C@H]([C@@H](C)O)NC(=O)[C@H](CCN)NC(=O)[C@H](CCN)NC(=O)[C@H](CC(C)C)NC(=O)[C@@H](Cc2ccccc2)NC(=O)[C@H](CCN)NC1=O)[C@@H](C)O [Polymyxin B] (X1-[Dab]T[Dab][Dab][Dab][dF]L[Dab][Dab]T; lactam 4-C (inferred); N-terminus assumed) |  | +5 |  | 640 (≈ 532 µM) |  | 640 (≈ 532 µM) |
